Results published in patent US20260335451A1, “SOLID ORAL DOSAGE FORMS OF ESTROGEN RECEPTOR DEGRADERS” (Arvinas Operations, Inc., priority 2023, published 2026).

Assays:
[1] = Biopharmaceutics Classification System class; format: physicochemical
ER = target: T1, ER (Homo sapiens, UniProt P03372); assay: ER degradation; conditions: evidence in words
T1 construct: PROTAC recruits cereblon (CRBN) E3 ligase
T1 sequence (P03372 1-595): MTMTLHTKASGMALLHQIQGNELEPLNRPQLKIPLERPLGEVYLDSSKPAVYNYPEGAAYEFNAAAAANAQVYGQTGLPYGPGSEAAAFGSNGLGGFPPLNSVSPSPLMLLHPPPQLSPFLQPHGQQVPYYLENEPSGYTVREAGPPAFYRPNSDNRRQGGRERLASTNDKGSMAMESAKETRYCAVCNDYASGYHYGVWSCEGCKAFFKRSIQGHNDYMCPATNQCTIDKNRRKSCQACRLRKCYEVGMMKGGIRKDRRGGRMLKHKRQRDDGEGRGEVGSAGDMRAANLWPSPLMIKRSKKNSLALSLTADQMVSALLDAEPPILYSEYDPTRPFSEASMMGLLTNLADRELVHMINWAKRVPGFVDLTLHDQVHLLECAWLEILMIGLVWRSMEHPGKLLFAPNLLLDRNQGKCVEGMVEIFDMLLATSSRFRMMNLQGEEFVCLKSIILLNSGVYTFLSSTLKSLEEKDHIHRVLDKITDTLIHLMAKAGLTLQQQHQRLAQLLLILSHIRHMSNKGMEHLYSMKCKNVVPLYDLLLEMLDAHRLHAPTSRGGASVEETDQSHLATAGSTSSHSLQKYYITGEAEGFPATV

[2] = Preclinical exposure of epimer Compound B vs Compound A; format: in vivo; conditions: preclinical data; epimer formed by interconversion of Compound A

| SMILES | permeability (in words, BCS) [1] | solubility (in words, BCS) [1] | ER degradation (ER) | exposure of Compound B compared to Compound A [2] [%] |
| --- | --- | --- | --- | --- |
| O=C1CC[C@H](N2Cc3cc(N4CCN(CC5CCN(c6ccc([C@@H]7c8ccc(O)cc8CC[C@@H]7c7ccccc7)cc6)CC5)CC4)ccc3C2=O)C(=O)N1 [Compound A, (S)-3-(5-(4-((1-(4-((1R,2S)-6-hydroxy-2-phenyl-1,2,3,4-tetrahydronaphthalen-1-yl)phenyl)piperidin-4-yl)methyl)piperazin-1-yl)-1-oxoisoindolin-2-yl)piperidine-2,6-dione] | low permeability | low solubility |  |  |
| O=C1CC[C@@H](N2Cc3cc(N4CCN(CC5CCN(c6ccc([C@@H]7c8ccc(O)cc8CC[C@@H]7c7ccccc7)cc6)CC5)CC4)ccc3C2=O)C(=O)N1 [Compound B] |  |  | does not degrade the ER | < 26 |
